System: E. coli strain W3110
Assay: Synergy assays: Biolog chemical sensitivity panels with Group IB metal, coefficient of drug interaction (CDI) from relative growth
Type: cell-based
Conditions: for CDI (coefficient of drug interaction), copper mixed with biocide: Copper (mM) section; for CDI (coefficient of drug interaction), gold + biocide: Gold (μM)
[1] = Silver 0.5 μM, 3rd of four biocide concentrations, E. coli
[2] = Silver 0.5 μM, 4th of four biocide concentrations, E. coli
[3] = Silver 1.0 μM, 3rd of four biocide concentrations, E. coli
[4] = Silver 1.0 μM, 4th of four biocide concentrations, E. coli
[5] = Silver 5.0 μM, 3rd of four biocide concentrations, E. coli
[6] = Silver 5.0 μM, 4th of four biocide concentrations, E. coli
[7] = 1st of 3 copper concentrations (value not shown), 4th of four biocide concentrations
[8] = 2nd of 3 copper concentrations (value not shown), 4th of four biocide concentrations
[9] = 3rd of 3 copper concentrations (value not shown), 4th of four biocide concentrations
[10] = Gold section of Table 5, first of three gold concentrations (μM, value not given), biocide concentration 4 of 4
[11] = Gold section of Table 5, second of three gold concentrations (μM, value not given), biocide concentration 4 of 4
[12] = Gold section of Table 5, third of three gold concentrations (μM, value not given), biocide concentration 4 of 4

c1ccc(-c2ccccn2)nc1 [2,2′-dipyridyl]
CDI (Copper 0.1 mM, biocide concentration 1 of 4): 0.76
CDI (Copper 0.1 mM, biocide concentration 2 of 4): Tox
CDI (Copper 0.1 mM, biocide concentration 3 of 4): Tox
CDI (Copper 0.1 mM, biocide concentration 4 of 4): Tox
CDI (Copper 0.5 mM, biocide concentration 1 of 4): 0.61
CDI (Copper 0.5 mM, biocide concentration 2 of 4): Tox
CDI (Copper 0.5 mM, biocide concentration 3 of 4): Tox
CDI (Copper 0.5 mM, biocide concentration 4 of 4): Tox
CDI (Copper 1.0 mM, biocide concentration 1 of 4): 0.76
CDI (Copper 1.0 mM, biocide concentration 2 of 4): Tox
CDI (Copper 1.0 mM, biocide concentration 3 of 4): Tox
CDI (Copper 1.0 mM, biocide concentration 4 of 4): Tox
CDI (coefficient of drug interaction) (Gold 5 μM, biocide concentration 2 of 4, E. coli): Tox
CDI (coefficient of drug interaction) (Gold 5 μM, biocide concentration 3 of 4, E. coli): Tox
CDI (coefficient of drug interaction) (Gold 5 μM, biocide concentration 4 of 4, E. coli): Tox
CDI (coefficient of drug interaction) (Gold 25 μM, biocide concentration 1 of 4, E. coli): 1.09
CDI (coefficient of drug interaction) (Gold 25 μM, biocide concentration 2 of 4, E. coli): Tox
CDI (coefficient of drug interaction) (Gold 25 μM, biocide concentration 3 of 4, E. coli): Tox
CDI (coefficient of drug interaction) (Gold 25 μM, biocide concentration 4 of 4, E. coli): Tox
CDI (coefficient of drug interaction), silver + biocide (Silver 0.5 μM, 1st of four biocide concentrations, E. coli): 1.55
CDI (coefficient of drug interaction), silver + biocide (Silver 0.5 μM, 2nd of four biocide concentrations, E. coli): Tox
CDI (coefficient of drug interaction), silver + biocide [1]: Tox
CDI (coefficient of drug interaction), silver + biocide [2]: Tox
CDI (coefficient of drug interaction), silver + biocide (Silver 1.0 μM, 1st of four biocide concentrations, E. coli): 1.07
CDI (coefficient of drug interaction), silver + biocide (Silver 1.0 μM, 2nd of four biocide concentrations, E. coli): Tox
CDI (coefficient of drug interaction), silver + biocide [3]: Tox
CDI (coefficient of drug interaction), silver + biocide [4]: Tox
CDI (coefficient of drug interaction), silver + biocide (Silver 5.0 μM, 1st of four biocide concentrations, E. coli): 1.21
CDI (coefficient of drug interaction), silver + biocide (Silver 5.0 μM, 2nd of four biocide concentrations, E. coli): Tox
CDI (coefficient of drug interaction), silver + biocide [5]: Tox
CDI (coefficient of drug interaction), silver + biocide [6]: Tox
CDI (coefficient of drug interaction) ([…], biocide concentration 1 of 4, E. coli): 0.72
CDI (coefficient of drug interaction) ([…], biocide concentration 2 of 4, E. coli): Tox
CDI (coefficient of drug interaction) ([…], biocide concentration 3 of 4, E. coli): Tox
CDI (coefficient of drug interaction) ([…], biocide concentration 4 of 4, E. coli): Tox

CC(C)c1nc2nc(N)nc(N)c2nc1C(C)C [2,4-Diamino-6,7-diisopropylpteridine]
CDI (coefficient of drug interaction), copper mixed with biocide [7]: Tox
CDI (coefficient of drug interaction), copper mixed with biocide [8]: Tox
CDI (coefficient of drug interaction), copper mixed with biocide [9]: Tox
CDI (coefficient of drug interaction) [10]: Tox
CDI (coefficient of drug interaction) [11]: Tox
CDI (coefficient of drug interaction) [12]: Tox
CDI (coefficient of drug interaction), silver + biocide [2]: Tox
CDI (coefficient of drug interaction), silver + biocide [4]: Tox
CDI (coefficient of drug interaction), silver + biocide [6]: Tox

O=[N+]([O-])c1ccc(O)c([N+](=O)[O-])c1 [2,4-dintrophenol]
CDI (coefficient of drug interaction) (Copper (mM), 1st of 3 copper concentrations (head line not shown), biocide concentration 1 of 4, E. coli): 0.87
CDI (coefficient of drug interaction) (Copper (mM), 1st of 3 copper concentrations (head line not shown), biocide concentration 2 of 4, E. coli): 0.83
CDI (coefficient of drug interaction) (Copper (mM), 1st of 3 copper concentrations (head line not shown), biocide concentration 3 of 4, E. coli): 1.10
CDI (coefficient of drug interaction) (Copper (mM), 1st of 3 copper concentrations (head line not shown), biocide concentration 4 of 4, E. coli): Tox
CDI (coefficient of drug interaction) (Copper (mM), 2nd of 3 copper concentrations (head line not shown), biocide concentration 1 of 4, E. coli): 0.76
CDI (coefficient of drug interaction) (Copper (mM), 2nd of 3 copper concentrations (head line not shown), biocide concentration 2 of 4, E. coli): 0.64
CDI (coefficient of drug interaction) (Copper (mM), 2nd of 3 copper concentrations (head line not shown), biocide concentration 3 of 4, E. coli): 0.99
CDI (coefficient of drug interaction) (Copper (mM), 2nd of 3 copper concentrations (head line not shown), biocide concentration 4 of 4, E. coli): Tox
CDI (coefficient of drug interaction) (Copper (mM), 3rd of 3 copper concentrations (head line not shown), biocide concentration 1 of 4, E. coli): 0.50
CDI (coefficient of drug interaction) (Copper (mM), 3rd of 3 copper concentrations (head line not shown), biocide concentration 2 of 4, E. coli): 0.49
CDI (coefficient of drug interaction) (Copper (mM), 3rd of 3 copper concentrations (head line not shown), biocide concentration 3 of 4, E. coli): 1.14
CDI (coefficient of drug interaction) (Copper (mM), 3rd of 3 copper concentrations (head line not shown), biocide concentration 4 of 4, E. coli): Tox
CDI (coefficient of drug interaction), gold + biocide (first of 3 gold concentrations, biocide concentration 1 of 4): 1.05
CDI (coefficient of drug interaction), gold + biocide (first of 3 gold concentrations, biocide concentration 2 of 4): 1.02
CDI (coefficient of drug interaction), gold + biocide (first of 3 gold concentrations, biocide concentration 3 of 4): 1.27
CDI (coefficient of drug interaction), gold + biocide (first of 3 gold concentrations, biocide concentration 4 of 4): Tox
CDI (coefficient of drug interaction), gold + biocide (second of 3 gold concentrations, biocide concentration 1 of 4): 1.02
CDI (coefficient of drug interaction), gold + biocide (second of 3 gold concentrations, biocide concentration 2 of 4): 0.94
CDI (coefficient of drug interaction), gold + biocide (second of 3 gold concentrations, biocide concentration 3 of 4): 1.02
CDI (coefficient of drug interaction), gold + biocide (second of 3 gold concentrations, biocide concentration 4 of 4): Tox
CDI (coefficient of drug interaction), gold + biocide (third of 3 gold concentrations, biocide concentration 1 of 4): 0.85
CDI (coefficient of drug interaction), gold + biocide (third of 3 gold concentrations, biocide concentration 2 of 4): 0.74
CDI (coefficient of drug interaction), gold + biocide (third of 3 gold concentrations, biocide concentration 3 of 4): 0.61
CDI (coefficient of drug interaction), gold + biocide (third of 3 gold concentrations, biocide concentration 4 of 4): Tox
CDI (Silver 0.5 μM, biocide concentration 1 of 4): 0.72
CDI (Silver 0.5 μM, biocide concentration 2 of 4): 0.80
CDI (Silver 0.5 μM, biocide concentration 3 of 4): 0.86
CDI (Silver 0.5 μM, biocide concentration 4 of 4): Tox
CDI (Silver 1.0 μM, biocide concentration 1 of 4): 0.91
CDI (Silver 1.0 μM, biocide concentration 2 of 4): 0.83
CDI (Silver 1.0 μM, biocide concentration 3 of 4): 1.02
CDI (Silver 1.0 μM, biocide concentration 4 of 4): Tox
CDI (Silver 5.0 μM, biocide concentration 1 of 4): 1.10
CDI (Silver 5.0 μM, biocide concentration 2 of 4): 1.04
CDI (Silver 5.0 μM, biocide concentration 3 of 4): 1.04
CDI (Silver 5.0 μM, biocide concentration 4 of 4): Tox

O=[N+]([O-])c1ncc[nH]1 [2-nitroimidazole]
CDI (coefficient of drug interaction), copper mixed with biocide (1st of 3 copper concentrations (value not shown), 3rd of four biocide concentrations): Tox
CDI (coefficient of drug interaction), copper mixed with biocide [7]: Tox
CDI (coefficient of drug interaction), copper mixed with biocide (2nd of 3 copper concentrations (value not shown), 3rd of four biocide concentrations): Tox
CDI (coefficient of drug interaction), copper mixed with biocide [8]: Tox
CDI (coefficient of drug interaction), copper mixed with biocide (3rd of 3 copper concentrations (value not shown), 3rd of four biocide concentrations): Tox
CDI (coefficient of drug interaction), copper mixed with biocide [9]: Tox
CDI (coefficient of drug interaction) (Gold section of Table 5, first of three gold concentrations (μM, value not given), biocide concentration 3 of 4): Tox
CDI (coefficient of drug interaction) [10]: Tox
CDI (coefficient of drug interaction) (Gold section of Table 5, second of three gold concentrations (μM, value not given), biocide concentration 3 of 4): Tox
CDI (coefficient of drug interaction) [11]: Tox
CDI (coefficient of drug interaction) (Gold section of Table 5, third of three gold concentrations (μM, value not given), biocide concentration 3 of 4): Tox
CDI (coefficient of drug interaction) [12]: Tox
CDI (coefficient of drug interaction), silver + biocide [1]: Tox
CDI (coefficient of drug interaction), silver + biocide [2]: Tox
CDI (coefficient of drug interaction), silver + biocide [3]: Tox
CDI (coefficient of drug interaction), silver + biocide [4]: Tox
CDI (coefficient of drug interaction), silver + biocide [5]: Tox
CDI (coefficient of drug interaction), silver + biocide [6]: Tox

Source: US11382328B2, “Rapid drug discovery methods for pathogen inactivation” (priority 2019, dated 2022)
